pIC50: −log10 of the molar value. Structures can show the parent of a compound that is named as a salt.
Legend:
[1] = system: cultured human mast cells (CHMC); test: CHMC low cell density IgE activation: tryptase assay; assay type: cell-based; conditions: low cell density CHMC, IgE activation
Procedure, shortened: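 Fluorogenic readout of tryptase released into the supernatant (30 min substrate incubation, room temperature) measures degranulation. Cells were plated at low density (1000–1500/well, varied by donor) and triggered with anti-IgE for 30 min at 37 °C.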

[2] = system: cultured human mast cells (CHMC); test: CHMC low cell density ionomycin activation: tryptase assay; assay type: cell-based; conditions: low cell density CHMC, read-out: LD Tryptase, CHMC, Iono, 3 pt
[3] = Homo sapiens, Mast cell, tryptase release, 3 point, read-out: LD Tryptase, CHMC, IgE, 3 pt
[4] = Homo sapiens, Mast cell, tryptase release, 3 point
[5] = tryptase release, 3 point, read-out: LD Tryptase, CHMC, IgE, 3 pt
[6] = tryptase release, 8 point, read-out: LD Tryptase, CHMC, IgE, 8 pt
[7] = Homo sapiens, Mast cell, tryptase, 3 pt, read-out: LD Tryptase, CHMC, IgE, 3 pt
[8] = Homo sapiens, Mast cell, tryptase, 8 pt, read-out: LD Tryptase, CHMC, IgE, 8 pt
[9] = Homo sapiens, Mast cell, tryptase, 3 pt
[10] = Homo sapiens, Mast cell, tryptase release, 3 pt, read-out: LD Tryptase, CHMC, IgE, 3 pt
[11] = Homo sapiens, Mast cell, tryptase release, 8 pt, read-out: LD Tryptase, CHMC, IgE, 8 pt
[12] = Homo sapiens, Mast cell, tryptase release, 3 pt

| Structure (SMILES) | pIC50 [1, 7] | pIC50 [2, 9] | pIC50 [1, 10] | pIC50 [1, 11] | pIC50 [2, 12] | further results |
| --- | --- | --- | --- | --- | --- | --- |
| COc1ccc(N(C)c2nc(Cl)ncc2F)cc1Cl [Compound 660] | – | – | – | – | – | pIC50 [1, 3]: < 5.00; pIC50 [2, 4]: < 5.00 |
| CNC(=O)Cn1ccc2ccc(Nc3ncc(F)c(Nc4ccc(OC(F)(F)F)c(Cl)c4)n3)cc21 [Compound 662, N4-(3-Chloro-4-trifluoromethoxyphenyl)-5-fluoro-N2-[1-(N-methylamino)carbonylmethyleneindol-6-yl]-2,4-pyrimidinediamine] | – | – | – | – | – | pIC50 [1, 5]: > 5.00; pIC50 [1, 6]: > 5.00; pIC50 ([2]; tryptase release, 3 point): < 5.00 |
| CNC(=O)Cn1ccc2ccc(Nc3ncc(F)c(Nc4ccc(Cl)c(OC)c4)n3)cc21 [Compound 663, N4-(4-Chloro-3-methoxyphenyl)-5-fluoro-N2-[1-(N-methylamino)carbonylmethyleneindol-6-yl]-2,4-pyrimidinediamine] | – | – | – | – | – | pIC50 [1, 5]: > 5.00; pIC50 ([2]; tryptase release, 3 point): < 5.00 |
| CNC(=O)Cn1ccc2ccc(Nc3ncc(F)c(Nc4ccc(OC)c(Cl)c4)n3)cc21 [Compound 664, N4-(3-Chloro-4-methoxyphenyl)-5-fluoro-N2-[1-(N-methylamino)carbonylmethyleneindol-6-yl]-2,4-pyrimidinediamine] | – | – | – | – | – | pIC50 [1, 5]: > 5.00; pIC50 [1, 6]: > 5.00; pIC50 ([2]; tryptase release, 3 point): < 5.00 |
| CNC(=O)Cn1ccc2ccc(Nc3ncc(F)c(Nc4ccc(C(=O)NC)c(Cl)c4)n3)cc21 [Compound 665, N4-[3-Chloro-4-(N-methylamino)carbonylphenyl]-5-fluoro-N2-[1-(N-methylamino)carbonylmethyleneindol-6-yl]-2,4-pyrimidinediamine] | – | – | – | – | – | pIC50 [1, 5]: > 5.00; pIC50 ([2]; tryptase release, 3 point): < 5.00 |
| COc1ccc(Nc2nc(Cl)ncc2F)cc1Cl [Compound 666] | – | – | – | – | – | pIC50 [1, 3]: < 5.00; pIC50 [2, 4]: < 5.00 |
| CCn1ncc2cc(Nc3ncc(F)c(Nc4ccc(OC)c(Cl)c4)n3)ccc21 [Compound 694] | > 5.00 | < 5.00 | – | – | – | pIC50 [1, 8]: > 5.00 |
| CCn1ncc2cc(Nc3ncc(F)c(Nc4ccc(Cl)c(Cl)c4)n3)ccc21 [Compound 695, N4-(3,4-Dichlorophenyl)-N2-(1-ethylindazol-5-yl)-5-fluoro-2,4-pyrimidinediamine] | < 5.00 | < 5.00 | – | – | – | – |
| CCn1ncc2cc(Nc3ncc(F)c(Nc4ccc5c(c4)NC(=O)C(C)(C)O5)n3)ccc21 [Compound 696, N4-(2,2-Dimethyl-3-oxo-4H-benz[1,4]oxazin-6-yl)-N2-(1-ethylindazol-5-yl)-5-fluoro-2,4-pyrimidinediamine] | > 5.00 | > 5.00 | – | – | – | pIC50 [1, 8]: > 5.00 |
| CCn1ncc2cc(Nc3ncc(F)c(Nc4ccc(F)c(OC)c4)n3)ccc21 [Compound 697, N2-(1-Ethylindazol-5-yl)-5-fluoro-N4-(4-fluoro-3-methoxyphenyl)-2,4-pyrimidinediamine] | > 5.00 | < 5.00 | – | – | – | pIC50 [1, 8]: > 5.00 |
| CCn1ncc2ccc(Nc3ncc(F)c(Nc4ccc(OC)c(Cl)c4)n3)cc21 [Compound 698, N4-(3-Chloro-4-methoxyphenyl)-N2-(1-ethylindazol-6-yl)-5-fluoro-2,4-pyrimidinediamine] | > 5.00 | < 5.00 | – | – | – | pIC50 [1, 8]: > 5.00 |
| CCn1ncc2ccc(Nc3ncc(F)c(Nc4ccc(Cl)c(Cl)c4)n3)cc21 [Compound 699, N4-(3,4-Dichlorophenyl)-N2-(1-ethylindazol-6-yl)-5-fluoro-2,4-pyrimidinediamine] | > 5.00 | > 5.00 | – | – | – | – |
| CCn1ncc2ccc(Nc3ncc(F)c(Nc4ccc5c(c4)NC(=O)C(C)(C)O5)n3)cc21 [Compound 700, N4-(2,2-Dimethyl-3-oxo-4H-benz[1,4]oxazin-6-yl)-N2-(1-ethylindazol-6-yl)-5-fluoro-2,4-pyrimidinediamine] | > 5.00 | > 5.00 | – | – | – | pIC50 [1, 8]: > 5.00 |
| CCn1ncc2ccc(Nc3ncc(F)c(Nc4ccc(F)c(OC)c4)n3)cc21 [Compound 701, N2-(1-Ethylindazol-6-yl)-5-fluoro-N4-(4-fluoro-3-methoxyphenyl)-2,4-pyrimidinediamine] | > 5.00 | > 5.00 | – | – | – | – |
| CCCn1ncc2ccc(Nc3ncc(F)c(Nc4ccc(OC)c(Cl)c4)n3)cc21 [Compound 706, N4-(3-Chloro-4-methoxyphenyl)-5-fluoro-N2-(1-n-propylindazol-6-yl)-2,4-pyrimidinediamine] | – | > 5.00 | – | – | – | pIC50 [1, 8]: > 5.00 |
| CCn1cc2ccc(Nc3ncc(F)c(Nc4ccc5c(c4)NC(=O)C(C)(C)O5)n3)cc2n1 [Compound 761, N4-(2,2-Dimethyl-3-oxo-4H-benz[1,4]oxazin-6-yl)-N2-(2-ethylindazol-6-yl)-5-fluoro-2,4-pyrimidinediamine] | > 5.00 | < 5.00 | – | – | – | pIC50 [1, 8]: > 5.00 |
| Cn1ncc2ccc(Nc3ncc(F)c(Nc4ccc5c(c4)NC(=O)C(C)(C)O5)n3)cc21 [Compound 766, N4-(2,2-Dimethyl-3-oxo-4H-benz[1,4]oxazin-6-yl)-5-fluoro-N2-(1-methylindazol-6-yl)-2,4-pyrimidinediamine DL-Camphor-1-sulfonic Acid Salt] | – | – | – | – | – | pIC50 ([1]; tryptase, 3 pt, read-out: LD Tryptase, CHMC, IgE, 3 pt): > 5.00; pIC50 ([1]; tryptase, 8 pt, read-out: LD Tryptase, CHMC, IgE, 8 pt): > 5.00; pIC50 ([2]; tryptase, 3 pt): < 5.00 |
| Cn1ncc2ccc(Nc3ncc(F)c(Nc4ccc5c(c4)NC(=O)C(C)(C)O5)n3)cc21 [Compound 769, N4-(2,2-Dimethyl-3-oxo-4H-benz[1,4]oxazin-6-yl)-5-fluoro-N2-(1-methylindazol-6-yl)-2,4-pyrimidinediamine Benzenesulfonic Acid Salt] | – | – | > 5.00 | > 5.00 | < 5.00 | – |
| COCCn1ncc2cc(Nc3ncc(F)c(Nc4ccc(Cl)c(Cl)c4)n3)ccc21 [Compound 771, N4-(3,4-Dichlorophenyl)-5-fluoro-N2-[1-(2-methoxyethyl)indazol-5-yl]-2,4-pyrimidinediamine] | – | – | > 5.00 | > 5.00 | < 5.00 | – |

More lines, main results first:

| pIC50 [1, 7] | pIC50 [2, 9] | pIC50 [1, 10] | pIC50 [1, 11] | pIC50 [2, 12] | Structure (SMILES) | further results |
| --- | --- | --- | --- | --- | --- | --- |
| – | – | > 5.00 | > 5.00 | < 5.00 | COCCn1ncc2cc(Nc3ncc(F)c(Nc4ccc(OC)c(Cl)c4)n3)ccc21 [Compound 772, N4-(3-Chloro-4-methoxyphenyl)-5-fluoro-N2-[1-(2-methoxyethyl)indazol-5-yl]-2,4-pyrimidinediamine] | – |
| – | – | > 5.00 | > 5.00 | < 5.00 | COCCn1ncc2cc(Nc3ncc(F)c(Nc4ccc5c(c4)NC(=O)C(C)(C)O5)n3)ccc21 [Compound 773, N4-(2,2-Dimethyl-3-oxo-4H-benz[1,4]oxazin-6-yl)-5-fluoro-N2-[1-(2-methoxyethyl)indazol-5-yl]-2,4-pyrimidinediamine] | – |
| – | – | > 5.00 | > 5.00 | < 5.00 | COCCn1ncc2cc(Nc3ncc(F)c(Nc4ccc(F)c(OC)c4)n3)ccc21 [Compound 774, 5-Fluoro-N4-(4-fluoro-3-methoxyphenyl)-N2-[1-(2-methoxyethyl)indazol-5-yl]-2,4-pyrimidinediamine] | – |
| – | – | > 5.00 | > 5.00 | < 5.00 | COCCn1ncc2ccc(Nc3ncc(F)c(Nc4ccc(Cl)c(Cl)c4)n3)cc21 [Compound 775, N4-(3,4-Dichlorophenyl)-5-fluoro-N2-[1-(2-methoxyethyl)indazol-6-yl]-2,4-pyrimidinediamine] | – |
| – | – | > 5.00 | > 5.00 | < 5.00 | COCCn1ncc2ccc(Nc3ncc(F)c(Nc4ccc(OC)c(Cl)c4)n3)cc21 [Compound 776, N4-(3-Chloro-4-methoxyphenyl)-5-fluoro-N2-[1-(2-methoxyethyl)indazol-6-yl]-2,4-pyrimidinediamine] | – |
| – | – | > 5.00 | > 5.00 | < 5.00 | COCCn1ncc2ccc(Nc3ncc(F)c(Nc4ccc5c(c4)NC(=O)C(C)(C)O5)n3)cc21 [Compound 777, N4-(2,2-Dimethyl-3-oxo-4H-benz[1,4]oxazin-6-yl)-5-fluoro-N2-[1-(2-methoxyethyl)indazol-6-yl]-2,4-pyrimidinediamine] | – |
| – | – | > 5.00 | – | < 5.00 | COCCn1ncc2ccc(Nc3ncc(F)c(Nc4ccc(F)c(OC)c4)n3)cc21 [Compound 778, 5-Fluoro-N4-(4-fluoro-3-methoxyphenyl)-N2-[1-(2-methoxyethyl)indazol-6-yl]-2,4-pyrimidinediamine] | – |
| – | – | > 5.00 | > 5.00 | < 5.00 | CC(=O)OCCCn1ncc2cc(Nc3ncc(F)c(Nc4ccc(Cl)c(Cl)c4)n3)ccc21 [Compound 787, N2-[1-(3-Acetyloxypropyl)indazol-5-yl]-N4-(3,4-dichlorophenyl)-5-fluoro-2,4-pyrimidinediamine] | – |
| – | – | > 5.00 | > 5.00 | < 5.00 | COc1ccc(Nc2nc(Nc3ccc4c(cnn4CCCOC(C)=O)c3)ncc2F)cc1Cl [Compound 788, N2-[1-(3-Acetyloxypropyl)indazol-5-yl]-N4-(3-chloro-4-methoxyphenyl)-5-fluoro-2,4-pyrimidinediamine] | – |
| – | – | > 5.00 | > 5.00 | < 5.00 | COc1cc(Nc2nc(Nc3ccc4c(cnn4CCCOC(C)=O)c3)ncc2F)ccc1F [Compound 789, N2-[1-(3-Acetyloxypropyl)indazol-5-yl]-5-fluoro-N4-(4-fluoro-3-methoxyphenyl)-2,4-pyrimidinediamine] | – |

From patent US20220073536A1 (Rigel Pharmaceuticals, Inc., priority 2003, published 2022)
